Molecular target: PARP7 (Homo sapiens (Human), UniProt Q7Z3E1)
Assay: Enzymatic assay for inhibition of PARP7: TR-FRET displacement of biotinylated Probe A from the TIPARP active site
Assay type: binding
Details: Table A-1
Outline: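 Compounds were tested as dose-response series, and reactions were incubated a further 30 min at 25° C. TR-FRET was read at 320 nm excitation with 615 and 665 nm emission after a 90 μs delay. The 665/615 ratio gave the TIPARP–Probe A complex, and % inhibition was fitted against concentration.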

Chain of PARP7 (Q7Z3E1 whole entry): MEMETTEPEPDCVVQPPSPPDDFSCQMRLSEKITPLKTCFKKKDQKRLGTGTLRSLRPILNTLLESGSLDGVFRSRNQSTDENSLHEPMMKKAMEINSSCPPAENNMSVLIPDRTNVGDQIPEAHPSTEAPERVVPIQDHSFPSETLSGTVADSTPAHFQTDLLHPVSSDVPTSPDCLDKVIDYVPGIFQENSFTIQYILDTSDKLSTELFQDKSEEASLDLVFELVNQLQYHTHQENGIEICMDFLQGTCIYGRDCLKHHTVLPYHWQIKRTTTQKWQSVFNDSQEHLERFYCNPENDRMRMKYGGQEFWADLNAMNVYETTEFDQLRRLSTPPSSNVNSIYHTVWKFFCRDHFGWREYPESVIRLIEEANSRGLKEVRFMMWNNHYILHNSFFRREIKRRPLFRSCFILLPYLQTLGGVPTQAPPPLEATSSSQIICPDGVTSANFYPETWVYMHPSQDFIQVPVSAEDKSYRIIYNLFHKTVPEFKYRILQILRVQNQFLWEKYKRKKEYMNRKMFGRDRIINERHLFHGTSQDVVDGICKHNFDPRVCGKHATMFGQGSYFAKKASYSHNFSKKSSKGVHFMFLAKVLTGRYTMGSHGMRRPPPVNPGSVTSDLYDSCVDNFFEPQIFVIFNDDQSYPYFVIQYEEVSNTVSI

SMILES | IC50 [nM]
CN1CCCC1COc1cc2c(cc1F)CN(c1cn[nH]c(=O)c1C(F)(F)F)C2 (centres unmarked) [Example 49, 5-[5-fluoro-6-[(1-methylpyrrolidin-2-yl)methoxy]-2,3-dihydro-1H-isoindol-2-yl]-4-(trifluoromethyl)-2,3-dihydropyridazin-3-one; formic acid] | < 100
N#Cc1ccc(N2CCN(C(=O)c3cccc(OC[C@@H]4C[C@H](O)CN4c4cn[nH]c(=O)c4C(F)(F)F)c3)CC2)nc1 [Example 51] | < 100
N#Cc1ccc(N2CCN(C(=O)c3cccc(OC[C@@H]4C[C@@H](O)CN4c4cn[nH]c(=O)c4C(F)(F)F)c3)CC2)nc1 [Example 52] | < 100
CN1CCC(Oc2cc3c(cc2F)CN(c2cn[nH]c(=O)c2C(F)(F)F)C3)C1 (centres unmarked) [Example 55, 5-[5-fluoro-6-[(1-methylpyrrolidin-3-yl)oxy]-2,3-dihydro-1H-isoindol-2-yl]-4-(trifluoromethyl)-2,3-dihydropyridazin-3-one] | < 100
O=c1[nH]ncc(N2Cc3cc(F)c(OC4CCCNC4)cc3C2)c1C(F)(F)F (centres unmarked) [Example 58, 5-[5-fluoro-6-(piperidin-3-yloxy)-2,3-dihydro-1H-isoindol-2-yl]-4-(trifluoromethyl)-2,3-dihydropyridazin-3-one] | < 100
O=c1[nH]ncc(N2Cc3cccc(F)c3C2)c1Cl [Example 60, 4-Chloro-5-(4-fluoro-2,3-dihydro-1H-isoindol-2-yl)-2,3-dihydropyridazin-3-one] | 100 to 1000
N#Cc1ccc(N2CCN(C(=O)c3cc(OCC4c5ccccc5CN4c4cn[nH]c(=O)c4C(F)(F)F)cnc3F)CC2)nc1 (centres unmarked) [Example 61, 6-(4-[[2-fluoro-5-([2-[6-oxo-5-(trifluoromethyl)-1,6-dihydropyridazin-4-yl]-2,3-dihydro-1H-isoindol-1-yl]methoxy)pyridin-3-yl]carbonyl]piperazin-1-yl)pyridine-3-carbonitrile] | < 100
N#Cc1cnc(N2CCN(C(=O)c3cc(OCC4c5ccccc5CN4c4cn[nH]c(=O)c4C(F)(F)F)cnc3F)CC2)nc1 (centres unmarked) [Example 62, 2-(4-[[2-fluoro-5-([2-[6-oxo-5-(trifluoromethyl)-1,6-dihydropyridazin-4-yl]-2,3-dihydro-1H-isoindol-1-yl]methoxy)pyridin-3-yl]carbonyl]piperazin-1-yl)pyrimidine-5-carbonitrile] | < 100
N#Cc1cnc(N2CCN(C(=O)c3cncc(OC[C@@H]4CCCN4c4cn[nH]c(=O)c4C(F)(F)F)c3)CC2)nc1 [Example 65, 2-[4-[(5-[[(2S)-1-[6-oxo-5-(trifluoromethyl)-1,6-dihydropyridazin-4-yl]pyrrolidin-2-yl]methoxy]pyridin-3-yl)carbonyl]piperazin-1-yl]pyrimidine-5-carbonitrile] | < 100
N#Cc1ccc(N2CCN(C(=O)c3cc(OC[C@@H]4CCCN4c4cn[nH]c(=O)c4C(F)(F)F)ccc3F)CC2)nc1 [Example 67, 6-[4-[(2-fluoro-5-[[(2S)-1-[6-oxo-5-(trifluoromethyl)-1,6-dihydropyridazin-4-yl]pyrrolidin-2-yl]methoxy]phenyl)carbonyl]piperazin-1-yl]pyridine-3-carbonitrile] | < 100
N#Cc1ccc(N2CCN(C(=O)c3ccnc(OC[C@@H]4CCCN4c4cn[nH]c(=O)c4C(F)(F)F)n3)CC2)nc1 [Example 68, 6-[4-[(2-[[(2S)-1-[6-oxo-5-(trifluoromethyl)-1,6-dihydropyridazin-4-yl]pyrrolidin-2-yl]methoxy]pyrimidin-4-yl)carbonyl]piperazin-1-yl]pyridine-3-carbonitrile] | < 100
N#Cc1ccc(N2CCN(C(=O)c3ccnc(OC[C@@H]4CCCN4c4cn[nH]c(=O)c4C(F)(F)F)c3)CC2)nc1 [Example 69, 6-[4-[(2-[[(2S)-1-[6-oxo-5-(trifluoromethyl)-1,6-dihydropyridazin-4-yl]pyrrolidin-2-yl]methoxy]pyridin-4-yl)carbonyl]piperazin-1-yl]pyridine-3-carbonitrile] | < 100
C[C@H]1C[C@@H](COc2cccc(C(=O)N3CCN(c4ccc(C#N)cn4)CC3)c2)N(c2cn[nH]c(=O)c2C(F)(F)F)C1 [Example 70, 6-[4-[(3-[[(2S,4S)-4-methyl-1-[6-oxo-5-(trifluoromethyl)-1,6-dihydropyridazin-4-yl]pyrrolidin-2-yl]methoxy]phenyl)carbonyl]piperazin-1-yl]pyridine-3-carbonitrile] | < 100
N#Cc1ccc(N2CCN(C(=O)c3cccc(OCC4COCCN4c4cn[nH]c(=O)c4C(F)(F)F)c3)CC2)nc1 (centres unmarked) [Example 71, 6-(4-[[3-([4-[6-oxo-5-(trifluoromethyl)-1,6-dihydropyridazin-4-yl]morpholin-3-yl]methoxy)phenyl]carbonyl]piperazin-1-yl)pyridine-3-carbonitrile] | 100 to 1000
N#Cc1ccc(N2CCN(C(=O)c3cncc(OC[C@@H]4CCCN4c4cn[nH]c(=O)c4C(F)(F)F)n3)CC2)nc1 [Example 74, 6-[4-[(6-[[(2S)-1-[6-oxo-5-(trifluoromethyl)-1,6-dihydropyridazin-4-yl]pyrrolidin-2-yl]methoxy]pyrazin-2-yl)carbonyl]piperazin-1-yl]pyridine-3-carbonitrile] | < 100
C[C@H]1C[C@@H](COCCC(=O)N2CCN(c3ccc(C#N)cn3)CC2)N(c2cn[nH]c(=O)c2C(F)(F)F)C1 [Example 78, 6-[4-(3-[[(2S,4S)-4-methyl-1-[6-oxo-5-(trifluoromethyl)-1,6-dihydropyridazin-4-yl]pyrrolidin-2-yl]methoxy]propanoyl)piperazin-1-yl]pyridine-3-carbonitrile] | < 100
O=C(COC[C@@H]1CCCN1c1cn[nH]c(=O)c1C(F)(F)F)NC1CCC(Oc2ccccn2)CC1 (stereo partly drawn) [Example 83, 2-[[(2S)-1-[6-oxo-5-(trifluoromethyl)-1,6-dihydropyridazin-4-yl]pyrrolidin-2-yl]methoxy]-N-[4-(pyridin-2-yloxy)cyclohexyl]acetamide] | 100 to 1000

Now from value to molecule:

IC50 [nM] | SMILES
< 100 | CC(=O)N1CCCC1COc1cc2c(cc1F)CN(c1cn[nH]c(=O)c1C(F)(F)F)C2 (centres unmarked) [Example 50, 5-[5-[(1-acetylpyrrolidin-2-yl)methoxy]-6-fluoro-2,3-dihydro-1H-isoindol-2-yl]-4-(trifluoromethyl)-2,3-dihydropyridazin-3-one]
< 100 | O=c1[nH]ncc(N2Cc3cc(F)c(OC4CCNC4)cc3C2)c1C(F)(F)F (centres unmarked) [Example 53, 5-(5-fluoro-6-(pyrrolidin-3-yloxy)isoindolin-2-yl)-4-(trifluoromethyl)pyridazin-3(2H)-one]
< 100 | CC(=O)N1CCC(Oc2cc3c(cc2F)CN(c2cn[nH]c(=O)c2C(F)(F)F)C3)C1 (centres unmarked) [Example 54, 5-(5-(1-acetylpyrrolidin-3-yloxy)-6-fluoroisoindolin-2-yl)-4-(trifluoromethyl)pyridazin-3(2H)-one]
< 100 | O=c1[nH]ncc(N2Cc3ccc(F)cc3C2)c1Cl [Example 59, 4-Chloro-5-(5-fluoro-2,3-dihydro-1H-isoindol-2-yl)-2,3-dihydropyridazin-3-one]
< 100 | N#Cc1ccc(NCCC(=O)Nc2cncc(OCC3c4ccccc4CN3c3cn[nH]c(=O)c3C(F)(F)F)c2)nc1 (centres unmarked) [Example 63, 3-[(5-cyanopyridin-2-yl)amino]-N-[5-([2-[6-oxo-5-(trifluoromethyl)-1,6-dihydropyridazin-4-yl]-2,3-dihydro-1H-isoindol-1-yl]methoxy)pyridin-3-yl]propanamide]
< 100 | N#Cc1ccc(N2CCN(C(=O)c3nccc(OC[C@@H]4CCCN4c4cn[nH]c(=O)c4C(F)(F)F)n3)CC2)nc1 [Example 66, 6-[4-[(4-[[(2S)-1-[6-oxo-5-(trifluoromethyl)-1,6-dihydropyridazin-4-yl]pyrrolidin-2-yl]methoxy]pyrimidin-2-yl)carbonyl]piperazin-1-yl]pyridine-3-carbonitrile]
< 100 | N#Cc1ccc(N2CCN(C(=O)c3cc(OC[C@@H]4CCCN4c4cn[nH]c(=O)c4C(F)(F)F)ccn3)CC2)nc1 [Example 73, 6-[4-[(4-[[(2S)-1-[6-oxo-5-(trifluoromethyl)-1,6-dihydropyridazin-4-yl]pyrrolidin-2-yl]methoxy]pyridin-2-yl)carbonyl]piperazin-1-yl]pyridine-3-carbonitrile]
< 100 | C[C@@H]1C[C@@H](COc2cccc(C(=O)N3CCN(c4ccc(C#N)cn4)CC3)c2)N(c2cn[nH]c(=O)c2C(F)(F)F)C1 [Example 75, 6-[4-[(3-[[(2S,4R)-4-methyl-1-[6-oxo-5-(trifluoromethyl)-1,6-dihydropyridazin-4-yl]pyrrolidin-2-yl]methoxy]phenyl)carbonyl]piperazin-1-yl]pyridine-3-carbonitrile]
< 100 | N#Cc1ccc(N2CCN(C(=O)COC[C@@H]3CCCN3c3cn[nH]c(=O)c3C(F)(F)F)CC2)nc1 [Example 76, 6-[4-(2-[[(2S)-1-[6-oxo-5-(trifluoromethyl)-1,6-dihydropyridazin-4-yl]pyrrolidin-2-yl]methoxy]acetyl)piperazin-1-yl]pyridine-3-carbonitrile]
< 100 | N#Cc1ccc(N2CCN(C(=O)CCCOC[C@@H]3CCCN3c3cn[nH]c(=O)c3C(F)(F)F)CC2)nc1 [Example 77, 6-[4-(4-[[(2S)-1-[6-oxo-5-(trifluoromethyl)-1,6-dihydropyridazin-4-yl]pyrrolidin-2-yl]methoxy]butanoyl)piperazin-1-yl]pyridine-3-carbonitrile]
< 100 | N#Cc1ccc(N2CCN(C(=O)/C=C/COC[C@@H]3c4ccccc4CN3c3cn[nH]c(=O)c3C(F)(F)F)CC2)nc1 [Example 79 Isomer C, 6-[4-[(2E)-4-[[(1S)-2-[6-oxo-5-(trifluoromethyl)-1,6-dihydropyridazin-4-yl]-2,3-dihydro-1H-isoindol-1-yl]methoxy]but-2-enoyl]piperazin-1-yl]pyridine-3-carbonitrile]
< 100 | N#Cc1ccc(N2CCN(C(=O)/C=C/COC[C@H]3c4ccccc4CN3c3cn[nH]c(=O)c3C(F)(F)F)CC2)nc1 [Example 79 Isomer D, 6-[4-[(2E)-4-[[(1R)-2-[6-oxo-5-(trifluoromethyl)-1,6-dihydropyridazin-4-yl]-2,3-dihydro-1H-isoindol-1-yl]methoxy]but-2-enoyl]piperazin-1-yl]pyridine-3-carbonitrile]
